In test [1] the test system is neurones of the substantia nigra. Put plainly: Acute MPTP model (including apoptosis), FluoroJade staining of degenerating neurones. It counts as in vivo. The conditions noted are these: mouse; for No. of degenerating neurones: FluoroJade staining. As to the method:
(§1) The 2-aminotetralins according to the invention, in particular rotigotine, thereby display a neuroprotective effect in a mouse model of Parkinson's disease: Following the acute administration of MPTP, which causes Parkinson's syndrome in both humans and monkeys, the number of the degenerating neurones in the acute phase was measured on the one hand (Table 1) and the functional integrity of the striatum in the sub-acute phase was ascertained on the other by determining the density of the dopamine transporter in the terminal nerve endings (FIGS. 1 and 2).
For the purpose of intoxication, 80 mg/kg of the neurotoxin 1-methyl-4-phenyl-1,2,3,6-tetrahydro-pyridine (MPTP) were administered to mice (in doses of 20 mg/kg at two-hour intervals), which led to the degeneration of approximately 50 to 60% of the neurones of the substantia nigra. Approximately 16 hours beforehand, rotigotine was administered in doses of 0.3, 1 or 3 mg/kg respectively, as the so-called “slow-release formulation”. Diffusion and absorption latencies led to rotigotine then being optimally available when MPTP was administered. The animals were killed after 24 hours and their brains fixed. The brain sections were stained with FluoroJade to identify degenerating cells. The immunohistochemical marking of tyrosine-hydroxylase helped to identify dopaminergic neurones.

In test [2] the test system is monkeys (macaques) injected with MPTP. As to the kind of experiment: Progressive MPTP primate model of morbus Parkinson (pilot study). Format: in vivo. As to the method:
In the model used, which reflects the progressive course of morbus Parkinson in primates, monkeys (macaques) were injected with subliminal toxic doses of MPTP for several days. Parkinson's symptoms developed in the model over a period of approximately 2 weeks. As soon as a certain level of damage had been reached, rotigotine was injected daily in a formulation that produced a continuous plasma level over 24 hours. The MPTP injections were stopped as soon as the motor activity had been reduced to a certain extent (approximately 5 days later). The behavior of the animals was assessed on a daily basis. […] A group of animals was killed at the end of both the rotigotine administration and the clearance phase, and the condition of the basal ganglia was histologically and biochemically examined.

For test [3], the system named is patients with Parkinson's disease. The conditions noted are these: cited from earlier work.
In test [4] the test system is dopamine transporters in the striatum. As to the kind of experiment: Sub-acute MPTP model, dopamine transporter density in the striatum ([125I]PE2I binding). Format: in vivo, mice. As to the method: Groups 1 to 7 were treated as follows: Group 1: untreated control group; Group 2: control group treated with a vehicle solution for rotigotine and MPTP; Group 3: MPTP treatment; Group 4: MPTP treatment plus rotigotine 0.3 mg/kg; Group 5: MPTP treatment plus rotigotine 1.0 mg/kg; Group 6: MPTP treatment plus rotigotine 3.0 mg/kg; Group 7: treatment solely with rotigotine (3.0 mg/kg).
as §1
For the purpose of intoxication, 80 mg/kg of the neurotoxin 1-methyl-4-phenyl-1,2,3,6-tetrahydro-pyridine (MPTP) were administered to mice (in doses of 20 mg/kg at two-hour intervals, groups 3 to 6 in FIGS. 1 and 2), which led to the degeneration of approximately 50 to 60% of the neurones of the substantia nigra (maximum degeneration in group 3 in FIGS. 1 and 2). […]

Take `CCCN(CCc1cccs1)C1CCc2c(O)cccc2C1` (single isomer, unassigned; (-)) [rotigotine, (−)-5,6,7,8-tetrahydro-6-[propyl[2-(2-thienyl)ethyl]amino]-1-naphthol]: the “No. of degenerating neurones” value in test [1] (MPTP intoxication + rotigotine 0.3 mg/kg) is 66.7; in test [1] (MPTP intoxication + rotigotine 1.0 mg/kg), 76.8; in test [1] (MPTP intoxication + rotigotine 3.0 mg/kg), 34.9; in test [1] (MPTP-vehicle + rotigotine 3.0 mg/kg (no MPTP)) it was 3.8. Besides, the “Staining of tyrosine hydroxylase (dopaminergic neurones)” value in test [1] (acute MPTP model, 24 hours, treated vs untreated animals) was “did not display any differences between the treated and untreated animals”. In test [1] (acute MPTP model, versus MPTP intoxication), the “Reduction of the number of degenerating neurones following application of rotigotine” value is given as “approximately 50%”. Besides, the “Number of degenerating neurones in the mesencephalon” value in test [1] (acute phase after MPTP) is on record as “reduced”. Further, the “Density of the nerve endings in the striatum” value in test [2] (compared to untreated animals) was “significantly increased”. Also, in test [2] (daily rotigotine injections, during treatment and in the following clearance phase), the “Motor activity of the animals” value is reported as “clearly improved”. Besides, in test [2] (following treatment and the clearance phase), the “Content of pre-pro-enkephalin (basal ganglia)” value was “showed a tendency towards normalisation”. Besides, in test [3] (patients with pronounced dyskinesias, Metman et al. (2001)), the Dyskinesias result was “improved”. The “UPDRS (Unified Parkinson's Disease Rating Scale) score” value in test [3] (transdermal administration, patients with Parkinson's disease, WO 02/089777) is recorded as “improvement”. Further, the “Survival of the neurones and their nerve endings (dopamine transporter density in the striatum)” value in test [4] (mice, MPTP 80 mg/kg, rotigotine 0.3, 1 or 3 mg/kg daily for 7 days, slow-release formulation) was “improved the survival of the neurones and their nerve endings depending on the dosage”. Moreover, the “Dopaminergic innervation of the striatum (density of the dopamine transporter)” value in test [4] (mouse, sub-acute phase after MPTP) is “almost completely maintained or restored”.

(Values after patent publication US8283376B2, “Use of substituted 2-aminotetralins for preventive treatment of parkinson's disease” (UCB Pharma GmbH, priority 2003, dated 2012).)
